Data taken from publication PMC10689823, “Discovery of a Drug-like, Natural Product-Inspired DCAF11 Ligand Chemotype” (Nature Communications, 2023).

Biological target: BRD4S-TagBFP reporter (Homo sapiens, UniProt O60885)
Test: FACS-based CRISPR/Cas9 BRD4 protein stability screen
Conditions: Mageck_Gene level

Compound: Cc1sc2c(c1C)C(c1ccc(Cl)cc1)=N[C@@H](CC(=O)NCCOCCOCCOCCOCCNC(=O)COc1c(Br)cc(/C=C3\C(=O)Nc4ccc(Br)cc43)cc1Br)c1nnc(C)n1-2 [Compound 9]
- High_lfc (Gene DCAF1): -0.04
- High_logP (Gene DCAF1): 0.22
- Low_lfc (Gene DCAF1): 0.71
- Low_logP (Gene DCAF1): 1.93
- High_lfc (Gene DCAF4): -0.33
- High_logP (Gene DCAF4): 0.01
- Low_lfc (Gene DCAF4): -0.08
- Low_logP (Gene DCAF4): 0.63
- High_lfc (Gene DCAF5): -0.12
- High_logP (Gene DCAF5): 0.13
- Low_lfc (Gene DCAF5): 0.4
- Low_logP (Gene DCAF5): 1.39
- High_lfc (Gene DCAF6): 0.1
- High_logP (Gene DCAF6): 0.11
- Low_lfc (Gene DCAF6): 0.51
- Low_logP (Gene DCAF6): 1.55
- High_lfc (Gene DCAF7): -0.09
- High_logP (Gene DCAF7): 0.04
- Low_lfc (Gene DCAF7): 0.11
- Low_logP (Gene DCAF7): 0.24
- High_lfc (Gene DCAF8): -0.19
- High_logP (Gene DCAF8): 0.14
- Low_lfc (Gene DCAF8): 0.08
- Low_logP (Gene DCAF8): 0.18
- High_lfc (Gene DCAF12): 0.07
- High_logP (Gene DCAF12): 0.29
- Low_lfc (Gene DCAF12): -0.16
- Low_logP (Gene DCAF12): 0.06
- High_lfc (Gene DCAF13): -0.33
- High_logP (Gene DCAF13): 0.07
- Low_lfc (Gene DCAF13): -0.3
- Low_logP (Gene DCAF13): 0.33
- High_lfc (Gene DCAF15): -0.01
- High_logP (Gene DCAF15): 0.12
- Low_lfc (Gene DCAF15): 0.32
- Low_logP (Gene DCAF15): 0.83
- High_lfc (Gene DCAF16): 0.71
- High_logP (Gene DCAF16): 2.61
- Low_lfc (Gene DCAF16): -0.66
- Low_logP (Gene DCAF16): 0.04
- High_lfc (Gene DCAF17): 0.07
- High_logP (Gene DCAF17): 0.17
- Low_lfc (Gene DCAF17): -0.16
- Low_logP (Gene DCAF17): 0.07
- High_lfc (Gene DCUN1D1): 0.27
- High_logP (Gene DCUN1D1): 1.62
- Low_lfc (Gene DCUN1D1): -0.11
- Low_logP (Gene DCUN1D1): 0.82
- High_lfc (Gene DCUN1D2): -0.24
- High_logP (Gene DCUN1D2): 0
- Low_lfc (Gene DCUN1D2): 0.46
- Low_logP (Gene DCUN1D2): 1.57
- High_lfc (Gene DCUN1D3): 0.07
- High_logP (Gene DCUN1D3): 0.22
- Low_lfc (Gene DCUN1D3): 0.29
- Low_logP (Gene DCUN1D3): 0.82
- High_lfc (Gene DCUN1D4): -0.09
- High_logP (Gene DCUN1D4): 0.04
- Low_lfc (Gene DCUN1D4): -0.2
- Low_logP (Gene DCUN1D4): 0.05
- High_lfc (Gene DCUN1D5): 0.69
- High_logP (Gene DCUN1D5): 2.79
- Low_lfc (Gene DCUN1D5): -0.49
- Low_logP (Gene DCUN1D5): 0
- High_lfc (Gene DDA1): 0.43
- High_logP (Gene DDA1): 1.02
- Low_lfc (Gene DDA1): -0.23
- Low_logP (Gene DDA1): 0.16
- High_lfc (Gene DDB1): 2.03
- Low_lfc (Gene DDB1): 0.4
- Low_logP (Gene DDB1): 0.83
- High_lfc (Gene DDB2): 0.02
- High_logP (Gene DDB2): 0.06
- Low_lfc (Gene DDB2): 0.07
- Low_logP (Gene DDB2): 0.53
- High_lfc (Gene DET1): -0.36
- High_logP (Gene DET1): 0.06
- Low_lfc (Gene DET1): -0.27
- Low_logP (Gene DET1): 0.06
- High_lfc (Gene DHX15): 0.66
- Low_lfc (Gene DHX15): 0.13
- Low_logP (Gene DHX15): 0.31
- High_lfc (Gene DTL): -0.25
- High_logP (Gene DTL): 0.1
- Low_lfc (Gene DTL): 0.46
- Low_logP (Gene DTL): 1.87
- High_lfc (Gene ECT2L): -0.03
- High_logP (Gene ECT2L): 0.31
- Low_lfc (Gene ECT2L): -0.31
- Low_logP (Gene ECT2L): 0.2
- High_lfc (Gene EED): 0.01
- High_logP (Gene EED): 0.06
- Low_lfc (Gene EED): -0.55
- Low_logP (Gene EED): 0.01
- High_lfc (Gene EIF4A1): -0.26
- High_logP (Gene EIF4A1): 0.15
- Low_lfc (Gene EIF4A1): -0.34
- Low_logP (Gene EIF4A1): 0.04
- High_lfc (Gene EIF4A3): -0.3
- High_logP (Gene EIF4A3): 0.1
- Low_lfc (Gene EIF4A3): 0.62
- Low_logP (Gene EIF4A3): 1.82
- High_lfc (Gene ELOA2): 0.02
- High_logP (Gene ELOA2): 0.19
- Low_lfc (Gene ELOA2): -0.02
- Low_logP (Gene ELOA2): 0.17
- High_lfc (Gene ELOA3): -0.12
- High_logP (Gene ELOA3): 0.33
- Low_lfc (Gene ELOA3): -0.41
- Low_logP (Gene ELOA3): 0.06
- High_lfc (Gene ELOA3D): -0.34
- High_logP (Gene ELOA3D): 0.11
- Low_lfc (Gene ELOA3D): -0.14
- Low_logP (Gene ELOA3D): 0.69
- High_lfc (Gene ELOA): -0.54
- High_logP (Gene ELOA): 0
- Low_lfc (Gene ELOA): 0.05
- Low_logP (Gene ELOA): 0.65
- High_lfc (Gene ELOB): -0.05
- High_logP (Gene ELOB): 0.33
- Low_lfc (Gene ELOB): 0.22
- Low_logP (Gene ELOB): 0.4
- High_lfc (Gene ELOC): -0.21
- High_logP (Gene ELOC): 0.17
- Low_lfc (Gene ELOC): 0.63
- Low_logP (Gene ELOC): 1.29
- High_lfc (Gene ENC1): -0.27
- High_logP (Gene ENC1): 0.19
- Low_lfc (Gene ENC1): -0.31
- Low_logP (Gene ENC1): 0.09
- High_lfc (Gene EPHA4): 0.01
- High_logP (Gene EPHA4): 0.19
- Low_lfc (Gene EPHA4): -0.17
- Low_logP (Gene EPHA4): 0.06
- High_lfc (Gene ERCC8): -0.19
- High_logP (Gene ERCC8): 0.27
- Low_lfc (Gene ERCC8): -0.63
- Low_logP (Gene ERCC8): 0.01
- High_lfc (Gene ESCO1): 0.1
- High_logP (Gene ESCO1): 0.14
- Low_lfc (Gene ESCO1): -0.14
- Low_logP (Gene ESCO1): 0.11
- High_lfc (Gene FAM9A): -0.28
- High_logP (Gene FAM9A): 0.03
- Low_lfc (Gene FAM9A): -0.03
- Low_logP (Gene FAM9A): 0.66
- High_lfc (Gene FBXL2): -0.01
- High_logP (Gene FBXL2): 0.32
- Low_lfc (Gene FBXL2): -0.67
- Low_logP (Gene FBXL2): 0.02
- High_lfc (Gene FBXL3): 0.05
- High_logP (Gene FBXL3): 0.1
- Low_lfc (Gene FBXL3): 0.28
- Low_logP (Gene FBXL3): 0.58
- High_lfc (Gene FBXL4): -0.08
- High_logP (Gene FBXL4): 0.06
- Low_lfc (Gene FBXL4): 0.06
- Low_logP (Gene FBXL4): 0.49
- High_lfc (Gene FBXL5): 0.03
- High_logP (Gene FBXL5): 0.04
- Low_lfc (Gene FBXL5): 0.05
- Low_logP (Gene FBXL5): 0.32
- High_lfc (Gene FBXL6): 0.08
- High_logP (Gene FBXL6): 0.54
- Low_lfc (Gene FBXL6): 0.07
- Low_logP (Gene FBXL6): 0.24
- High_lfc (Gene FBXL7): -0.35
- High_logP (Gene FBXL7): 0.03
- Low_lfc (Gene FBXL7): -0.35
- Low_logP (Gene FBXL7): 0.01
- High_lfc (Gene FBXL8): -0.11
- High_logP (Gene FBXL8): 0.39
- Low_lfc (Gene FBXL8): 0.2
- Low_logP (Gene FBXL8): 0.54
- High_lfc (Gene FBXL12): 0.01
- High_logP (Gene FBXL12): 0.22
- Low_lfc (Gene FBXL12): 0.06
- Low_logP (Gene FBXL12): 0.38
- High_lfc (Gene FBXL13): -0.18
- High_logP (Gene FBXL13): 0.02
- Low_lfc (Gene FBXL13): -0.03
- Low_logP (Gene FBXL13): 0.46
- High_lfc (Gene FBXL14): -0.12
- High_logP (Gene FBXL14): 0.22
- Low_lfc (Gene FBXL14): 0.15
- Low_logP (Gene FBXL14): 0.61
- High_lfc (Gene FBXL15): 0.41
- High_logP (Gene FBXL15): 0.56
- Low_lfc (Gene FBXL15): 0.18
- Low_logP (Gene FBXL15): 0.28
- High_lfc (Gene FBXL16): 0.12
- High_logP (Gene FBXL16): 0.12
- Low_lfc (Gene FBXL16): -0.11
- Low_logP (Gene FBXL16): 0.07
- High_lfc (Gene FBXL17): 0.03
- High_logP (Gene FBXL17): 0.74
- Low_lfc (Gene FBXL17): -0.02
- Low_logP (Gene FBXL17): 0.44
- High_lfc (Gene FBXL18): 0.28
- High_logP (Gene FBXL18): 1.09
